Reference: article PMC6667205, “Antitumor activity of novel pyrazole-based small molecular inhibitors of the STAT3 pathway in patient derived high grade glioma cells” (PLoS ONE, 2019)

Target: T1, STAT3 (Homo sapiens, UniProt P40763)
T1 construct: GST-STAT3
Test: TR-FRET displacement of fluorescent phosphopeptide (5-FAM-G(pY)LPQTVC-NH2) from GST-STAT3
Format: binding

T1 sequence (P40763 2-770): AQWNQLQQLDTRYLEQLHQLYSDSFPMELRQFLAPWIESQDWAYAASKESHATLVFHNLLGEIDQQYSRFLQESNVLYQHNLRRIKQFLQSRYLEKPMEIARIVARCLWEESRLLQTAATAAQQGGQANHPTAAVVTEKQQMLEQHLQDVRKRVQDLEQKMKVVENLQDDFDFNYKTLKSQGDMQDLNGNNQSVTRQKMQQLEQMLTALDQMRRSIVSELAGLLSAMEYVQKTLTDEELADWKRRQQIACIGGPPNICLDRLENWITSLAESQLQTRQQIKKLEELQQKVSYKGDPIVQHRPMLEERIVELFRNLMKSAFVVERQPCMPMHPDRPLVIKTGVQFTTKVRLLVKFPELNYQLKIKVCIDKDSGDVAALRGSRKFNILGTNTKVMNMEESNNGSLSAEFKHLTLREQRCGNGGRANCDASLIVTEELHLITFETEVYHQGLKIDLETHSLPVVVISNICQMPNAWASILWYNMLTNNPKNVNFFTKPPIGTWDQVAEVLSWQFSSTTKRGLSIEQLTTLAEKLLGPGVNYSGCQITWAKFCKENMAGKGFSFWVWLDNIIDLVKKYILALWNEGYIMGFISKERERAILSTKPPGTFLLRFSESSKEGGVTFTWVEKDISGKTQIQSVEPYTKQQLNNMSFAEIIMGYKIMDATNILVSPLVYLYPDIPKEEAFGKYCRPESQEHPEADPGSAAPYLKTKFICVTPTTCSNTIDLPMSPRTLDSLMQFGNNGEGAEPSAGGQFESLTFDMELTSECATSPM

In the case of S3I-1757, the IC50 is reported as 62.1 ± 6.1 µM.
